Assay results published in US20040224943A1, “Method of lowering body temperature with (R) - 2,3-benzodiazepines” (priority 2003, published 2004).

Experiments:
mice [1] = assay: Stress Induced Hyperthermia (SIH) assay; format: in vivo; settings: for lowering the core body temperature: 64 mg/kg intraperitoneally 60 minutes before T1, at both T1 and T2
Procedure: In this assay, two successive temperature measurements are performed, the first, a basal measurement and the second, a measurement of a stress-enhanced temperature. The difference between the two measurements (delta T) is compared in animals treated with a test compound versus animals treated with vehicle alone to determine the test compound's activity in lowering body temperature. […] Besides the effect of drugs on the stress-enhanced temperature (T2), this test also directly measures intrinsic effects of drugs on the core body temperature (T1). Thus a test compound that reduces T2 and thus yields a lower delta T has utility in therapies that are directed to lowering the body temperature of an individual, such as perimenopause and menopause.
Mice, individually housed overnight, were subjected to two sequential rectal temperature measurements ten minutes apart. The first measurement is the basal temperature (T1), the second one the stress-enhanced temperature (T2). The difference (delta T) is the stress-induced hyperthermia. See, Van der Heyden et al., “Stress-induced hyperthermia in singly housed mice,” Physiology and Behavior, 463-470, (1997).
Test animals (group housed mice) were assigned to five groups of ten animals each. The test groups were dosed according to Table 2 below.
The test animals were isolated in an experimental room approximately one hour before lights off on the day before the test. On the day of testing, animals were taken quietly from the cage, held in a supine position, the rectal temperature was measured and the animal was placed back into the cage. The same procedure was repeated 10 minutes later. The first temperature (T1), the second temperature (T2) and the difference (delta T) were recorded. The test compounds were administered intraperitonealy 60 minutes before T1, in order to prevent the stress of being injected from affecting the temperature measurements.

mice [2] = settings: cited from earlier work
rats = settings: cited from earlier work
lymphocyte = settings: in vitro, cited from earlier work
peripheral BZ receptors = peripheral BZ receptors (Homo sapiens, UniProt P30536); settings: cited from earlier work
central BZ receptors = settings: cited from earlier work
mice [3] = settings: reported in U.S. Pat. No. 4,322,346; cited from earlier work

peripheral BZ receptors, sequence (P30536 whole entry): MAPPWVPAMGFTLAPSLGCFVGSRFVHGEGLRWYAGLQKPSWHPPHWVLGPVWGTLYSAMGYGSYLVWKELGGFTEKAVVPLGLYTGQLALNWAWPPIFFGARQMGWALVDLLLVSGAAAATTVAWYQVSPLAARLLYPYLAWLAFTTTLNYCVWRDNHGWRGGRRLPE

Structure (SMILES): CC[C@@H]1C(C)=NN=C(c2ccc(OC)c(OC)c2)c2cc(OC)c(OC)cc21 [(S)-tofisopam, (S)-1-(3,4-dimethoxyphenyl)-4-methyl-5-ethyl-7,8-dimethoxy-5H-2,3-benzodiazepine]
- lowering the core body temperature (mice [1]): more active than either the racemate or the (R)-enantiomer

Structure (SMILES): CCC1C(C)=NN=C(c2ccc(O)c(OC)c2)c2cc(OC)c(O)cc21 (stereo not drawn) [Compound 5, 1-(3-methoxy-4-hydroxyphenyl)-4-methyl-5-ethyl-7-hydroxy-8-methoxy-5H-2,3-benzodiazepine]
- inhibition of aggression (mice [2]): 28.6%
- inhibition of muricide (rats): 20%

Structure (SMILES): CCC1C(C)=NN=C(c2ccc(OC)c(OC)c2)c2cc(OC)c(O)cc21 (stereo not drawn) [Compound 1, 1-(3,4-dimethoxyphenyl)-4-methyl-5-ethyl-7-hydroxy-8-methoxy-5H-2,3-benzodiazepine]
- inhibition of aggression (mice [2]): 0%
- inhibition of muricide (rats): 20%

Structure (SMILES): CCC1C(C)=NN=C(c2ccc(OC)c(OC)c2)c2cc(OC)c(OC)cc21 (racemic) [tofisopam]
- IL-2 production (lymphocyte; mitogen-induced): enhances
- mitogen-induced lymphocyte proliferation (lymphocyte): enhances
- lowering the core body temperature (mice [1]): demonstrates activity in lowering the core body temperature
- binding to peripheral BZ receptors (peripheral BZ receptors): binds only weakly
- interaction with central BZ receptors (central BZ receptors): does not interact

Structure (SMILES): CC[C@H]1C(C)=NN=C(c2ccc(OC)c(OC)c2)c2cc(OC)c(OC)cc21 [(R)-tofisopam, (R)-1-(3,4-dimethoxyphenyl)-4-methyl-5-ethyl-7,8-dimethoxy-5H-2,3-benzodiazepine]
- lowering the core body temperature (mice [1]): demonstrated therapeutic activity
- sedation, abnormal gait, ptosis, muscle tone, lacrimation, reactivity to touch (mice [1]; 64 mg/kg intraperitoneally, compared with (S)-enantiomer or racemate): less sedation, abnormal gait, or ptosis, decreased muscle tone, decreased lacrimation, or decreased reactivity to touch

Structure (SMILES): CCC1C(C)=NN=C(c2ccc(O)c(OC)c2)c2cc(OC)c(OC)cc21 (stereo not drawn) [Compound 3, 1-(3-methoxy-4-hydroxyphenyl)-4-methyl-5-ethyl-7,8-dimethoxy-5H-2,3-benzodiazepine]
- inhibition of aggression (mice [2]): 0%
- narcosis-potentiating activity (mice [3]): narcosis-potentiating activity
- inhibition of muricide (rats): 0%
